Test results reported in US20120083522A1, “MODULATION OF INFLAMMATORY RESPONSES BY FACTOR XI” (Isis Pharmaceuitcals, inc., priority 2009, published 2012).
In the oligonucleotide strings, read from the 5' end, every base follows the letter of its sugar. An asterisk marks phosphorothioate; unmarked linkages are phosphodiester. Other units and linkages are bracketed, terminal groups are in braces. A string of capitals states the bases alone. e = 2'-O-(2-methoxyethyl) (MOE); [5mC] = 5-methylcytosine; d = 2'-deoxy (DNA)

Key:
Format in all cases: in vivo
[1] = Tolerability in CD1 mice: liver function (Example 25); conditions: 50 mg/kg s.c. twice per week for 6 weeks, plasma
[2] = Tolerability in CD1 mice: body and organ weight (Example 25); conditions: 50 mg/kg s.c. twice per week for 6 weeks
[3] = Tolerability in CD1 mice: hematology assays (Example 25); design: RBC / WBC / Neutrophil / Lymphocyte / Platelets: unit not given here; conditions: 50 mg/kg s.c. twice per week for 6 weeks, blood
[4] = Tolerability in CD1 mice: kidney function (Example 25); conditions: 50 mg/kg s.c. twice per week for 6 weeks, plasma

**Q.** Which results are given for “ISIS 445503: microwalk gapmer of Table 51 (antisense eG*e[5mC]*eA*eT*eT*eG*dG*dT*dG*d[5mC]*dA*d[5mC]*dA*dG*eT*eT*eT*e[5mC]*eT*eG)”?
**A.** ALT [1]: 1314 IU/L; AST [1]: 852 IU/L; Albumin [1]: 3.4 mg/dL; Bilirubin [1]: 0.28 mg/dL; Body weight (increase over PBS control weight before start of treatment) [2]: 9 g; Kidney weight as percentage of body weight ([2]; end of study): 1.4%; Liver weight as percentage of body weight ([2]; end of study): 8%; Spleen weight as percentage of body weight ([2]; end of study): 0.6%; HCT [3]: 46%; Hemoglobin [3]: 13.6 g/dL; Lymphocyte [3]: 6436; Neutrophil [3]: 1475; Platelets [3]: 309; RBC [3]: 9.2; WBC [3]: 8; BUN [4]: 29 mg/dL
